# Laboratory results reported in ChEMBL document CHEMBL2311255, “Discovery of alkenylboronic acids as neuroprotective agents affecting multiple biological targets involved in Alzheimer's disease” (Bioorg Med Chem Lett, 2013).
# Active and inactive are the calls of the source. No cut-off for these calls is given here.
# How the values were obtained:
# SH-SY5Y [1] = experiment: Neuroprotective activity in human APP695-transfected SH-SY5Y cells assessed as decrease of malondialdehyde level after 16 hrs (reference value: 52 +/- 1.84 nmol/mg); format: functional
# SH-SY5Y [2] = experiment: Neuroprotective activity in human APP695-transfected SH-SY5Y cells assessed as decrease of H2O2-induced malondialdehyde level after 16 hrs (reference value: 67.83 +/- 5.86 nmol/mg); format: functional
# [3] = Cytotoxicity against human APP695-transfected SH-SY5Y cells at 10 uM after 24 hrs by MTT assay; format: cell-based
# SH-SY5Y [4] = experiment: Neuroprotective activity in human APP695-transfected SH-SY5Y cells assessed as inhibition of H2O2-induced increase of caspase-3 activity after 60 mins by fluorescence assay; format: functional
# SH-SY5Y [5] = experiment: Neuroprotective activity in human APP695-transfected SH-SY5Y cells assessed as inhibition of ROS production at 5 uM after 60 mins by DCFA-DA assay; format: functional, cell-based
# SH-SY5Y [6] = experiment: Neuroprotective activity in human APP695-transfected SH-SY5Y cells assessed as inhibition of H2O2-induced ROS production at 5 uM after 60 mins by DCFA-DA assay; format: functional; conditions: 1 h
# SH-SY5Y [7] = experiment: Neuroprotective activity in human APP695-transfected SH-SY5Y cells assessed as GSH-glutathione disulfide level after 16 hrs (reference value: 4.71 +/- 0.48 nmol/mg); format: functional
# SH-SY5Y [8] = experiment: Neuroprotective activity in human APP695-transfected SH-SY5Y cells assessed as increase of glutathione level after 16 hrs (reference value: 17.79 +/- 1.59 nmol/mg); format: functional
# SH-SY5Y [9] = experiment: Neuroprotective activity in human APP695-transfected SH-SY5Y cells assessed as H2O2-induced GSH-glutathione disulfide level after 16 hrs (reference value: 6.85 +/- 0.92 nmol/mg); format: functional
# SH-SY5Y [10] = experiment: Neuroprotective activity in human APP695-transfected SH-SY5Y cells assessed as inhibition of H2O2-induced decrease in glutathione level after 16 hrs (reference value: 22.95 +/- 0.59 nmol/mg); format: functional
# Acetylcholinesterase = experiment: Inhibition of AChE (unknown origin) measured for 3 mins by Ellman colorimetric method; conditions: Homo sapiens
# Beta-secretase 1 = Beta-secretase 1 (Homo sapiens, UniProt P56817); experiment: Inhibition of human recombinant BACE using H-RE-(EDANS)EVNLDAEFK(DABCYL)R-OH as substrate preincubated for 1 hr before addition of substrate measured after 1 hr
# Chain of Beta-secretase 1 (P56817 whole entry): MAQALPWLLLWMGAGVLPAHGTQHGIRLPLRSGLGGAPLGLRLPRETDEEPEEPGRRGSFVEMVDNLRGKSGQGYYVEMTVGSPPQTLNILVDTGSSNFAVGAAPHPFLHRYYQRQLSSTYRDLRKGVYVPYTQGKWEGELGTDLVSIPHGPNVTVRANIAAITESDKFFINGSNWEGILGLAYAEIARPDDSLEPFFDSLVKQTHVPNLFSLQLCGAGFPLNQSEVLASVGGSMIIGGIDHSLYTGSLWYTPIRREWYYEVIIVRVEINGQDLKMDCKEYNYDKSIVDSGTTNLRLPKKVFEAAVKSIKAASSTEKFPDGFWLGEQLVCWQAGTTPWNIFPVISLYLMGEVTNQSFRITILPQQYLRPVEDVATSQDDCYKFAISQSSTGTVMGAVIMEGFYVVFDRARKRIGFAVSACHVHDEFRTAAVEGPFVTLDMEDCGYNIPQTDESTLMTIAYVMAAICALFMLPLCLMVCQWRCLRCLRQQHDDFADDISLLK
# SH-SY5Y [11] = experiment: Neuroprotective activity in human APP695-transfected SH-SY5Y cells assessed as inhibition of H2O2-induced ROS production after 60 mins by DCFA-DA assay; format: functional, cell-based; conditions: 1 h
# [12] = biological target: Amyloid-beta precursor protein (Homo sapiens) (UniProt P05067); experiment: Inhibition of beta amyloid (25 to 35) (unknown origin) disaggregation after 4 days by thioflavin-T fluorescence analysis
# Chain of Amyloid-beta precursor protein (Homo sapiens) (P05067 whole entry): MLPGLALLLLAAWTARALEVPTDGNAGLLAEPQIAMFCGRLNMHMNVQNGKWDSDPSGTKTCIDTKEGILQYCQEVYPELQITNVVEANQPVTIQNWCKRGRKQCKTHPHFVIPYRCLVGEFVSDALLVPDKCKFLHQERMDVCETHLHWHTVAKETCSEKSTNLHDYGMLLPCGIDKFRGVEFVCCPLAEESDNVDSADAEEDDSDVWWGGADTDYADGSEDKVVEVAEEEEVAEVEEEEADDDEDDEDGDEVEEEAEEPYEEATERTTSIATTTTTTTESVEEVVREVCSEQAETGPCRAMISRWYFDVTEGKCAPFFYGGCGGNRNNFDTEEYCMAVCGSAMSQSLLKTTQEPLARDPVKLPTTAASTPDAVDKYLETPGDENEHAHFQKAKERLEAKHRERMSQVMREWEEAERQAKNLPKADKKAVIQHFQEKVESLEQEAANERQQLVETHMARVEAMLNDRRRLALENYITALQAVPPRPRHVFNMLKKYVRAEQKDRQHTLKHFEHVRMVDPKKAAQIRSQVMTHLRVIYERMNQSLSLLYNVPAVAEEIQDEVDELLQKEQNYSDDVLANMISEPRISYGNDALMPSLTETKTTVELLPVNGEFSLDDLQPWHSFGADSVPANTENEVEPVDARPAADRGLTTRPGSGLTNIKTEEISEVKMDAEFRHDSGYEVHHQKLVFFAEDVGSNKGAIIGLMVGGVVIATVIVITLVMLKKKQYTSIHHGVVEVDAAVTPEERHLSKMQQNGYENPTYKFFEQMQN
# [13] = biological target: Amyloid-beta precursor protein (Homo sapiens) (UniProt P05067); experiment: Inhibition of beta amyloid (25 to 35) (unknown origin) aggregation after 4 days by thioflavin-T fluorescence analysis
Compound,Activity (SH-SY5Y [1]),Activity (SH-SY5Y [2]),Activity [3],inhibition (INH) (SH-SY5Y [4]),inhibition (SH-SY5Y [5]),inhibition at 5 µM (SH-SY5Y [6]),Activity (SH-SY5Y [7]),Activity (SH-SY5Y [8]),Activity (SH-SY5Y [9]),Activity (SH-SY5Y [10]),inhibition (Acetylcholinesterase),IC50 (Beta-secretase 1),IC50 (SH-SY5Y [11]),Activity [12],Activity [13]
OB(O)/C=C/c1ccc(F)cc1,37.73 nmol/mg,52.64 nmol/mg,Non-toxic,>50%,inactive,< 50%,4.75 nmol/mg,28.19 nmol/mg,4.58 nmol/mg,27.42 nmol/mg,inactive,,,,
CC1(C)OB(/C=C/c2cccc(C(F)(F)F)c2)OC1(C)C,44.03 nmol/mg,45.55 nmol/mg,Non-toxic,>50%,inactive,< 50%,5.53 nmol/mg,33.77 nmol/mg,4.75 nmol/mg,43.29 nmol/mg,inactive,,,,
OB(O)c1ccccc1 [PHENYLBORONIC ACID],40.75 nmol/mg,52.78 nmol/mg,Non-toxic,,inactive,< 50%,5.85 nmol/mg,28.62 nmol/mg,4.85 nmol/mg,28.01 nmol/mg,inactive,,,,
CC1(C)OB(/C=C/c2ccccc2)OC1(C)C,40.71 nmol/mg,51.76 nmol/mg,Non-toxic,,inactive,< 50%,3.87 nmol/mg,34.74 nmol/mg,4.89 nmol/mg,37.04 nmol/mg,inactive,,,,
CC1(C)OB(/C=C/c2ccc(F)cc2F)OC1(C)C,39.76 nmol/mg,53.1 nmol/mg,Non-toxic,,inactive,< 50%,5.33 nmol/mg,31.51 nmol/mg,6.06 nmol/mg,34.77 nmol/mg,inactive,,,,
OB(O)c1ccc(C(F)(F)F)cc1,45.36 nmol/mg,73.23 nmol/mg,Non-toxic,,inactive,< 50%,5.76 nmol/mg,23.32 nmol/mg,5.85 nmol/mg,26.59 nmol/mg,inactive,,,,
CN1CC(=O)OB(/C=C/c2ccccc2)OC(=O)C1,41.96 nmol/mg,57.54 nmol/mg,Non-toxic,,inactive,< 50%,6.11 nmol/mg,35.2 nmol/mg,5.01 nmol/mg,39.38 nmol/mg,inactive,136 µM,,,
COc1cc(/C=C/B2OC(C)(C)C(C)(C)O2)cc(OC)c1,48.18 nmol/mg,53.36 nmol/mg,Non-toxic,,inactive,< 50%,4.49 nmol/mg,25.36 nmol/mg,4.53 nmol/mg,27.98 nmol/mg,inactive,,,,
OB(O)/C=C/c1ccccc1 [STYRYLBORONIC ACID],42.22 nmol/mg,53.23 nmol/mg,Non-toxic,,inactive,,4.6 nmol/mg,21.84 nmol/mg,4.25 nmol/mg,30.62 nmol/mg,inactive,,8.08 µM,inactive,inactive
COc1ccc(/C=C/B(O)O)cc1,44.35 nmol/mg,58.76 nmol/mg,Non-toxic,,inactive,< 50%,4.56 nmol/mg,26.2 nmol/mg,6 nmol/mg,26.05 nmol/mg,inactive,,,,
OB(O)/C=C/C1CCCCC1,37.12 nmol/mg,45.38 nmol/mg,Non-toxic,>50%,inactive,< 50%,4.37 nmol/mg,24.06 nmol/mg,6.03 nmol/mg,35.58 nmol/mg,inactive,,,,
CCCCC/C=C/B(O)O,40.34 nmol/mg,59.21 nmol/mg,Non-toxic,,inactive,< 50%,4.65 nmol/mg,27.35 nmol/mg,3.94 nmol/mg,27.22 nmol/mg,inactive,,,,
OB(O)/C=C/c1ccc(C(F)(F)F)cc1,35.67 nmol/mg,38.23 nmol/mg,Non-toxic,>50%,inactive,,4.3 nmol/mg,31.48 nmol/mg,4.47 nmol/mg,27.02 nmol/mg,inactive,,2.85 µM,inactive,inactive
COc1cc(/C=C/B(O)O)cc(OC)c1,42.79 nmol/mg,74.75 nmol/mg,Non-toxic,,inactive,< 50%,4.7 nmol/mg,23.11 nmol/mg,6.23 nmol/mg,32.03 nmol/mg,inactive,,,,
